This passage reports viscosity, speed of sound and electrical conductivity results from a compilation of properties of binary mixtures.

The nature of the series: xn = mol fraction of the nth substance listed.

For `CCCCCCCCCCCCOS(=O)(=O)[O-].CCCC[n+]1ccn(C)c1` + O, the viscosity (as a rule, the resistance of a fluid to flow) by setting is: (303 K, 101 kPa, x1 = 0.011) 300 mPa·s; (303 K, 101 kPa, x1 = 0.0288) 113000 mPa·s; (303 K, 101 kPa, x1 = 0.0626) 1070000 mPa·s; (303 K, 101 kPa, x1 = 0.1512) 4200000 mPa·s; (303 K, 101 kPa, x1 = 1) 1.32e+07 mPa·s; (333 K, 101 kPa, x1 = 0.011) 25000 mPa·s. Also, the viscosity stood at 335000 mPa·s (333 K, 101 kPa, x1 = 0.0288) and 1780000 mPa·s (333 K, 101 kPa, x1 = 0.1512).

With `CC[n+]1ccn(C)c1.[Cl-]` + CC#N, the viscosity came out at 36 mPa·s (373 K, 100 kPa, x2 = 0); 19 mPa·s (373 K, 100 kPa, x2 = 0.158); 7 mPa·s (373 K, 100 kPa, x2 = 0.472); 3 mPa·s (373 K, 100 kPa, x2 = 0.781).

Take `CCCC[n+]1ccn(C)c1C.F[B-](F)(F)F` + OCCOCCOCCOCCO: the viscosity (298.15 K, 101 kPa, x2 = 0) amounted to 573 mPa·s and the viscosity (298.15 K, 101 kPa, x2 = 0.5) came to 82.1 mPa·s.

`c1ccccc1` + CCCCCCCCn1cc[n+](C)c1.O=S(=O)([N-]S(=O)(=O)C(F)(F)F)C(F)(F)F yielded a viscosity (293 K, 101 kPa, x2 = 0) of 0.641 mPa·s.

Take `CC(C)C[P+](C)(CC(C)C)CC(C)C.Cc1ccc(S(=O)(=O)[O-])cc1` + O: the viscosity is, setting by setting: (293.15 K, 101 kPa, x1 = 0.0066) 1.65 mPa·s; (293.15 K, 101 kPa, x1 = 0.0152) 2.6 mPa·s; (293.15 K, 101 kPa, x2 = 0) 1320 mPa·s; (293.15 K, 101 kPa, x2 = 0.9557) 6.9 mPa·s.

`CCCCCCCCn1cc[n+](C)c1.O=S(=O)([N-]S(=O)(=O)C(F)(F)F)C(F)(F)F` + c1ccccc1 returned a viscosity (293 K, 101 kPa, x1 = 0.1) of 3.21 mPa·s; a viscosity (293 K, 101 kPa, x1 = 0.4) of 23.5 mPa·s; a viscosity (293 K, 101 kPa, x1 = 0.8) of 74.4 mPa·s; a viscosity (293 K, 101 kPa, x1 = 1) of 113 mPa·s.

In turn, `CCCCCCCCn1cc[n+](C)c1.[Br-]` + O gave a viscosity (298.15 K, 100 kPa, x2 = 0.9008) of 31.3 mPa·s and a viscosity (298.15 K, 100 kPa, x2 = 0.9487) of 7.96 mPa·s.

In turn, `CCCCCC[n+]1ccn(C)c1.F[P-](F)(F)(F)(F)F` + O came in with a viscosity (298 K, 101 kPa, x2 = 0.1334) of 452 mPa·s.

Consider `CCCCCCCCn1cc[n+](C)c1.[Cl-]` + O, for which the speed of sound (in general, the propagation velocity of pressure waves in the medium) (298.15 K, 101 kPa, x2 = 0) is listed as 1721 m/s; the speed of sound (298.15 K, 101 kPa, x2 = 0.1484) came to 1666.7 m/s; the speed of sound (298.15 K, 101 kPa, x2 = 0.203) came out at 1655.1 m/s; the speed of sound (298.15 K, 101 kPa, x2 = 0.5334) amounted to 1632.2 m/s; the speed of sound (298.15 K, 101 kPa, x2 = 0.6807) amounted to 1639.3 m/s; the speed of sound (298.15 K, 101 kPa, x2 = 0.8185) was 1650.7 m/s. Further, the speed of sound was determined as 1639.6 m/s (298.15 K, 101 kPa, x2 = 0.9307) and 1611.3 m/s (298.15 K, 101 kPa, x2 = 0.9635).

In the case of `CCCC[n+]1ccn(C)c1.O=S(=O)([N-]S(=O)(=O)C(F)(F)F)C(F)(F)F` + CCCCn1cc[n+](C)c1.O=S(=O)([N-]S(=O)(=O)C(F)(F)F)c1ccc[cH-]1.[Fe+2].c1cc[cH-]c1, the viscosity (298.15 K, 100 kPa, x1 = 1) came out at 43.8 mPa·s.

For `CC[n+]1ccn(C)c1.[Cl-]` + OCC(O)CO, the viscosity reads like this: (298.15 K, 101 kPa, x1 = 0.667) 345 mPa·s; (303.15 K, 101 kPa, x1 = 0.667) 243 mPa·s; (323.15 K, 101 kPa, x1 = 0.667) 75.6 mPa·s; (333.15 K, 101 kPa, x1 = 0.667) 47.2 mPa·s.

For `O=C([O-])C(F)(F)F.[Na+]` + CCCCNC(N)=O, the viscosity by setting is: (302.2 K, 101.3 kPa, x2 = 0.6576) 324 mPa·s; (305.5 K, 101.3 kPa, x2 = 0.6576) 196 mPa·s; (310.4 K, 101.3 kPa, x2 = 0.6576) 96 mPa·s; (311.4 K, 101.3 kPa, x2 = 0.6576) 85 mPa·s; (314.3 K, 101.3 kPa, x2 = 0.6576) 54 mPa·s; (317.5 K, 101.3 kPa, x2 = 0.6576) 37 mPa·s. Further, the viscosity (322.4 K, 101.3 kPa, x2 = 0.6576) came to 21 mPa·s.

With `C[N+](C)(C)CCO.O=S(=O)([N-]S(=O)(=O)C(F)(F)F)C(F)(F)F` + OCCOCCOCCOCCO, the viscosity (298.15 K, 101 kPa, x2 = 0.5) is 87 mPa·s.

With `CCCn1cc[n+](C)c1C.O=S(=O)([N-]S(=O)(=O)C(F)(F)F)C(F)(F)F` + OCCOCCOCCOCCO, the viscosity is 85.6 mPa·s (298.15 K, 101 kPa, x2 = 0) and 56.1 mPa·s (298.15 K, 101 kPa, x2 = 0.5).

`CCCCC(CC)COC(=O)CC(C(=O)OCC(CC)CCCC)S(=O)(=O)[O-].CCCC[n+]1ccn(C)c1` (centres undefined) + O yielded a viscosity (313.15 K, 99.6 kPa, x1 = 0.8695) of 692 mPa·s; a viscosity (323.15 K, 99.6 kPa, x1 = 0.8695) of 363 mPa·s; a viscosity (333.15 K, 99.6 kPa, x1 = 0.8695) of 207 mPa·s.

As for `CC[N+]1(C)CCCC1.[Br-]` + OCC(O)CO, the speed of sound (313.15 K, 100 kPa, x1 = 0.3333) is 1870.1 m/s.

For the compound `CCCCCCCC[n+]1ccn(C)c1.O=S(=O)([N-]S(=O)(=O)C(F)(F)C(F)(F)F)C(F)(F)C(F)(F)F` + O, where the note is “293.15 K, 101 kPa, x2 = 0.148”, the viscosity came out at 167 mPa·s. The same compound came in with an electrical conductivity (295.15 K, 101 kPa, x2 = 0.148) of 0.13 S/m.

The compound `O` + CCCC[n+]1ccn(C)c1.F[B-](F)(F)F yielded an electrical conductivity (288.15 K, 100 kPa, x1 = 1) of 0.0217 S/m and an electrical conductivity (318.15 K, 100 kPa, x1 = 1) of 0.0402 S/m.

For the compound `CCCC[n+]1ccn(C)c1.O=S(=O)([O-])C(F)(F)F` + OCCOCCOCCOCCO, for the setting “298.15 K, 101 kPa, x2 = 0”, the viscosity amounted to 59.8 mPa·s.

Turning to `O=S(=O)([N-]S(=O)(=O)C(F)(F)F)C(F)(F)F.[Li+]` + COCCOCCOCCOCCOC, the electrical conductivity (298 K, 100 kPa, x1 = 0.143) was 0.255 S/m; the electrical conductivity (303 K, 100 kPa, x1 = 0.143) came out at 0.29 S/m; the electrical conductivity (308 K, 100 kPa, x1 = 0.143) worked out at 0.325 S/m; the electrical conductivity (313 K, 100 kPa, x1 = 0.143) was found to be 0.362 S/m; the electrical conductivity (323 K, 100 kPa, x1 = 0.143) is 0.465 S/m.

For `CCCCCCCC[n+]1ccn(C)c1C.F[B-](F)(F)F` + CCCCCCCC[n+]1ccn(C)c1.F[P-](F)(F)(F)(F)F, the viscosity was found to be 196 mPa·s (303.15 K, 100 kPa, x2 = 0.5); 116 mPa·s (313.15 K, 100 kPa, x2 = 0.5); 73.6 mPa·s (323.15 K, 100 kPa, x2 = 0.5); 50.6 mPa·s (333.15 K, 100 kPa, x2 = 0.5); 36.8 mPa·s (343.15 K, 100 kPa, x2 = 0.5); 29.1 mPa·s (353.15 K, 100 kPa, x2 = 0.5).

In turn, `CCCCCCCC[n+]1ccn(C)c1.F[P-](F)(F)(F)(F)F` + O displayed a viscosity (298 K, 101 kPa, x2 = 0.113) of 506 mPa·s.

For the compound `O=C(O)CC(O)(CC(=O)O)C(=O)O` + C[N+](C)(C)Cc1ccccc1.[Cl-], the electrical conductivity runs as follows: (303.11 K, 101 kPa, x2 = 0.5) 0.0002 S/m; (308.2 K, 101 kPa, x2 = 0.5) 0.0005 S/m; (313.21 K, 101 kPa, x2 = 0.5) 0.0011 S/m; (318.06 K, 101 kPa, x2 = 0.5) 0.0019 S/m; (323.14 K, 101 kPa, x2 = 0.5) 0.0032 S/m; (333.12 K, 101 kPa, x2 = 0.5) 0.0095 S/m. Moreover, the viscosity stood at 152000 mPa·s (317.97 K, 101 kPa, x2 = 0.5); 89000 mPa·s (323.1 K, 101 kPa, x2 = 0.5); 28100 mPa·s (332.88 K, 101 kPa, x2 = 0.5).

`CC[n+]1ccn(C)c1.O=S(=O)([O-])C(F)(F)F` + O: the electrical conductivity by setting is: (296.75 K, 101 kPa, x2 = 0.304) 1.12 S/m; (298.15 K, 101 kPa, x2 = 0.304) 1.23 S/m; (298.35 K, 101 kPa, x2 = 0.304) 1.22 S/m; (300.65 K, 101 kPa, x2 = 0.304) 1.32 S/m; (301.05 K, 101 kPa, x2 = 0.304) 1.33 S/m; (301.85 K, 101 kPa, x2 = 0.304) 1.37 S/m. Also, for the setting “302.75 K, 101 kPa, x2 = 0.304”, the electrical conductivity came to 1.44 S/m.

In the case of `C[N+](C)(C)CCO.O=C([O-])[C@@H]1CCCN1` + O, the viscosity by setting is: (308.15 K, 100 kPa, x1 = 0.0043) 0.91 mPa·s; (308.15 K, 100 kPa, x1 = 0.0342) 2.01 mPa·s; (323.15 K, 100 kPa, x1 = 0.0202) 1.11 mPa·s; (323.15 K, 100 kPa, x1 = 0.0342) 1.52 mPa·s; (338.15 K, 100 kPa, x1 = 0.0202) 1 mPa·s; (353.15 K, 100 kPa, x1 = 0.0202) 0.88 mPa·s. For the same compound, the viscosity (353.15 K, 100 kPa, x1 = 0.0342) is on record as 0.98 mPa·s.

Turning to `CCCC[n+]1ccn(C)c1.O=S(=O)([N-]S(=O)(=O)C(F)(F)F)C(F)(F)F` + O, the viscosity (298 K, 101 kPa, x2 = 0.0716) worked out at 27 mPa·s.
